Measured values published in US20230365592A1 (Agios Pharmaceuticals, Inc., priority 2022, published 2023).

Target: T1, human PAH with the R408W mutation (Homo sapiens, UniProt P00439, R408W)
T1 construct: expressed in transfected cells
T1 sequence (P00439 1-452 R408W): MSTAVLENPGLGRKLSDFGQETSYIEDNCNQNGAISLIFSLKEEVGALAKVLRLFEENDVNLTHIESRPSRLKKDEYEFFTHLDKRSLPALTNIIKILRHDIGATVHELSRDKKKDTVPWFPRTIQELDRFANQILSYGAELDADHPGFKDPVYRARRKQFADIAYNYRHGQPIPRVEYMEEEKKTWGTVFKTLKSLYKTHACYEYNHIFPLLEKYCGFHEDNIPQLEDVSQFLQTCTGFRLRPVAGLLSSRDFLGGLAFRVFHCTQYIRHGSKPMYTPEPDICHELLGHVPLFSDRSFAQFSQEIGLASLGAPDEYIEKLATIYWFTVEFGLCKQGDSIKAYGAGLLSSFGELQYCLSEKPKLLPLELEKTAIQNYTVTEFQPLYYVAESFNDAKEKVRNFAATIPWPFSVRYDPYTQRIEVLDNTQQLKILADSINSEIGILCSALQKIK
Experiment: Cell Based Phenylalanine Flux Assay;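 also: after compound treatment, cells received sepiapterin plus isotope-labelled Phenylalanine for 4 hours, then labelled Tyrosine in the medium was quantified, 10-point 2-fold dilution series run in duplicate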
Conditions: A375 cells expressing R408W PAH; 24 hrs with compound, then 20 µM sepiapterin and 800 µM 13C9,15N-Phenylalanine for 4 hours; 13C-Tyrosine by LC-MS; average where tested multiple times; read-out: AC50

| SMILES | AC50 [µM] |
| --- | --- |
| Cn1cc(-c2nnc(C(=O)N3CCc4[nH]cnc4C3c3cc4cc(F)ccn4n3)o2)cn1 (stereo not drawn) | 1 to 5 |
| Cc1ccc2cc(C3c4nc[nH]c4CCN3C(=O)c3nnc(C(C)(C)O)o3)nn2c1 (stereo not drawn) | 1 to 5 |
| Cc1ccn2nc([C@@H]3c4nc[nH]c4CCN3C(=O)c3ccnn3C(F)F)cc2c1 (single isomer, unassigned) | 1 to 5 |
| O=C(c1ccn(-c2ccccn2)n1)N1CCc2[nH]cnc2C1c1cc2c(F)cccn2n1 (stereo not drawn) | 1 to 5 |
| CC(C)(O)c1nnc(C(=O)N2CCc3[nH]cnc3C2c2cc3ccccn3n2)o1 (stereo not drawn) | 1 to 5 |
| CC(C)(C)c1nnc(N2CCc3[nH]cnc3C2c2cc3cccc(Cl)n3n2)o1 (stereo not drawn) | > 5 |
| COc1cccn2nc(C3c4nc[nH]c4CCN3C(=O)c3ocnc3C(F)F)cc12 (stereo not drawn) | 1 to 5 |

Same assay, conditions: A375 cells expressing human PAH R408W; 24 hrs compound incubation; 13C-Tyrosine by LC-MS; average where tested multiple times; read-out: AC50

| SMILES | AC50 [µM] |
| --- | --- |
| FC(F)(F)c1ccc(N2CCc3[nH]cnc3[C@H]2c2cc3ccccn3n2)nc1 [Example 1914, (S)-4-(pyrazolo[1,5-a]pyridin-2-yl)-5-(5-(trifluoromethyl)pyridin-2-yl)-4,5,6,7-tetrahydro-1H-imidazo[4,5-c]pyridine] | < 0.5 |
| Clc1cccn2nc([C@H]3c4nc[nH]c4CCN3c3nnc(C4CCC4)o3)cc12 [Example 1830, (R)-2-(4-(4-chloropyrazolo[1,5-a]pyridin-2-yl)-6,7-dihydro-1H-imidazo[4,5-c]pyridin-5(4H)-yl)-5-cyclobutyl-1,3,4-oxadiazole] | > 5 |
| Cc1cccc(-c2nnc(N3CCc4[nH]cnc4[C@H]3c3cc4c(C)cccn4n3)o2)n1 [Example 2345, (S)-2-(4-(4-methylpyrazolo[1,5-a]pyridin-2-yl)-1,4,6,7-tetrahydro-5H-imidazo[4,5-c]pyridin-5-yl)-5-(6-methylpyridin-2-yl)-1,3,4-oxadiazole] | 0.5 to 1 |
| CC(C)c1cccn2nc([C@@H]3c4nc[nH]c4CCN3C(=O)c3nnc(C4CC4)o3)cc12 [Example 1882, (S)-(5-cyclopropyl-1,3,4-oxadiazol-2-yl)(4-(4-isopropylpyrazolo[1,5-a]pyridin-2-yl)-1,4,6,7-tetrahydro-5H-imidazo[4,5-c]pyridin-5-yl)methanone] | < 0.5 |
| Cc1cccc2cc([C@@H]3c4nc[nH]c4CCN3c3nnc(-c4cccnc4F)o3)nn12 [Example 2274, (S)-2-(2-fluoropyridin-3-yl)-5-(4-(7-methylpyrazolo[1,5-a]pyridin-2-yl)-1,4,6,7-tetrahydro-5H-imidazo[4,5-c]pyridin-5-yl)-1,3,4-oxadiazole] | 0.5 to 1 |
| COCc1ccc2c(C(=O)N3CCc4[nH]cnc4[C@H]3c3cc4c(C)cccn4n3)cnn2c1 [Example 2436, (S)-(6-(methoxymethyl)pyrazolo[1,5-a]pyridin-3-yl)(4-(4-methylpyrazolo[1,5-a]pyridin-2-yl)-6,7-dihydro-1H-imidazo[4,5-c]pyridin-5(4H)-yl)methanone] | 1 to 5 |

Same assay, conditions: A375 cells expressing human R408W PAH; 24 hrs compound incubation; 13C-Tyrosine by LC-MS; average where tested multiple times; read-out: AC50

| SMILES | AC50 [µM] |
| --- | --- |
| CC(C)(O)c1nc(Cl)c(C(=O)N2CCc3[nH]cnc3[C@H]2c2cc3ccccn3n2)o1 [Example 990, (S)-(4-chloro-2-(2-hydroxypropan-2-yl)oxazol-5-yl)(4-(pyrazolo[1,5-a]pyridin-2-yl)-6,7-dihydro-1H-imidazo[4,5-c]pyridin-5(4H)-yl)methanone] | 0.5 to 1 |
| O=C(c1nnc(-c2ccccn2)o1)N1CCc2[nH]cnc2[C@H]1c1cc2c(OC(F)F)cccn2n1 [Example 1689, (S)-(4-(4-(difluoromethoxy)pyrazolo[1,5-a]pyridin-2-yl)-6,7-dihydro-1H-imidazo[4,5-c]pyridin-5(4H)-yl)(5-(pyridin-2-yl)-1,3,4-oxadiazol-2-yl)methanone] | < 0.5 |
| Cn1nc(C2CC2)nc1C(=O)N1CCc2[nH]cnc2[C@H]1c1cc2c(Cl)cccn2n1 [Example 1072, (S)-(4-(4-chloropyrazolo[1,5-a]pyridin-2-yl)-6,7-dihydro-1H-imidazo[4,5-c]pyridin-5(4H)-yl)(3-cyclopropyl-1-methyl-1H-1,2,4-triazol-5-yl)methanone] | 0.5 to 1 |
| Cc1nnc(C(=O)N2CCc3[nH]cnc3[C@H]2c2cc3c(C)cccn3n2)o1 [Example 1010, (S)-(5-methyl-1,3,4-oxadiazol-2-yl)(4-(4-methylpyrazolo[1,5-a]pyridin-2-yl)-6,7-dihydro-1H-imidazo[4,5-c)pyridin-5(4H)-yl)methanone] | 0.5 to 1 |
| CC(C)(O)c1nc(Br)c(C(=O)N2CCc3[nH]cnc3[C@H]2c2cc3c(F)cccn3n2)o1 [Example 746, (S)-(4-bromo-2-(2-hydroxypropan-2-yl)oxazol-5-yl)(4-(4-fluoropyrazolo[1,5-a]pyridin-2-yl)-6,7-dihydro-1H-imidazo[4,5-c]pyridin-5(4H)-yl)methanone] | < 0.5 |
| CC1(c2nnc(C(=O)N3CCc4[nH]cnc4[C@H]3c3cc4cccc(C(F)(F)F)n4n3)o2)CC1 [Example 1354, (S)-(5-(1-methylcyclopropyl)-1,3,4-oxadiazol-2-yl)(4-(7-(trifluoromethyl)pyrazolo[1,5-a]pyridin-2-yl)-6,7-dihydro-1H-imidazo[4,5-c]pyridin-5(4H)-yl)methanone] | 0.5 to 1 |
| CC(C)(C)c1nnc(C(=O)N2CCc3[nH]cnc3[C@@H]2c2cc3cccc(C(F)F)n3n2)o1 [Example 1418, (R)-(5-(tert-butyl)-1,3,4-oxadiazol-2-yl)(4-(7-(difluoromethyl)pyrazolo[1,5-a]pyridin-2-yl)-6,7-dihydro-1H-imidazo[4,5-c]pyridin-5(4H)-yl)methanone] | 1 to 5 |
| O=C(c1nnc(-c2ncccn2)o1)N1CCc2[nH]cnc2[C@@H]1c1cc2c(C(F)(F)F)cccn2n1 [Example 1380, (R)-(5-(pyrimidin-2-yl)-1,3,4-oxadiazol-2-yl)(4-(4-(trifluoromethyl)pyrazolo[1,5-a]pyridin-2-yl)-6,7-dihydro-1H-imidazo[4,5-c]pyridin-5(4H)-yl)methanone] | 1 to 5 |
| Cc1cnn(C)c1-c1nnc(C(=O)N2CCc3[nH]cnc3[C@H]2c2cc3c(C)cccn3n2)o1 [Example 926, (S)-(5-(1,4-dimethyl-1H-pyrazol-5-yl)-1,3,4-oxadiazol-2-yl)(4-(4-methylpyrazolo[1,5-a]pyridin-2-yl)-6,7-dihydro-1H-imidazo[4,5-c]pyridin-5(4H)-yl)methanone] | < 0.5 |
| CC(C)n1nccc1C(=O)N1CCc2[nH]cnc2[C@H]1c1cc2ccccn2n1 [Example 856, (S)-(1-isopropyl-1H-pyrazol-5-yl)(4-(pyrazolo[1,5-a]pyridin-2-yl)-6,7-dihydro-1H-imidazo[4,5-c]pyridin-5(4H)-yl)methanone] | < 0.5 |
| Cn1nc(Cl)nc1C(=O)N1CCc2[nH]cnc2[C@H]1c1cc2c(C(F)(F)F)cccn2n1 [Example 1078, (S)-(3-chloro-1-methyl-1H-1,2,4-triazol-5-yl)(4-(4-(trifluoromethyl)pyrazolo[1,5-a]pyridin-2-yl)-6,7-dihydro-1H-imidazo[4,5-c]pyridin-5(4H)-yl)methanone] | < 0.5 |
| Cc1ccc(-c2nnc(C(=O)N3CCc4[nH]cnc4[C@H]3c3cc4ccccn4n3)o2)nc1 [Example 673, (S)-(5-(5-methylpyridin-2-yl)-1,3,4-oxadiazol-2-yl)(4-(pyrazolo[1,5-a]pyridin-2-yl)-6,7-dihydro-1H-imidazo[4,5-c]pyridin-5(4H)-yl)methanone] | 0.5 to 1 |
| CC(C)c1nnc(C(=O)N2CCc3[nH]cnc3[C@@H]2c2cc3cccc(C(F)F)n3n2)o1 [Example 1493, (R)-(4-(7-(difluoromethyl)pyrazolo[1,5-a]pyridin-2-yl)-6,7-dihydro-1H-imidazo[4,5-c]pyridin-5(4H)-yl)(5-isopropyl-1,3,4-oxadiazol-2-yl)methanone] | 1 to 5 |
| Cc1cc(-c2nnc(C(=O)N3CCc4[nH]cnc4[C@@H]3c3cc4cccc(F)n4n3)o2)nn1C [Example 1564, (R)-(5-(1,5-dimethyl-1H-pyrazol-3-yl)-1,3,4-oxadiazol-2-yl)(4-(7-fluoropyrazolo[1,5-a]pyridin-2-yl)-6,7-dihydro-1H-imidazo[4,5-c]pyridin-5(4H)-yl)methanone] | > 5 |
| Cc1cnn(C)c1-c1nnc(C(=O)N2CCc3[nH]cnc3[C@@H]2c2cc3c(F)cccn3n2)o1 [Example 929, (R)-(5-(1,4-dimethyl-1H-pyrazol-5-yl)-1,3,4-oxadiazol-2-yl)(4-(4-fluoropyrazolo[1,5-a]pyridin-2-yl)-6,7-dihydro-1H-imidazo[4,5-c]pyridin-5(4H)-yl)methanone] | > 5 |
| Cc1cccn2nc([C@H]3c4nc[nH]c4CCN3C(=O)c3nnc(C4(C)CC4)o3)cc12 [Example 1322, (R)-(5-(1-methylcyclopropyl)-1,3,4-oxadiazol-2-yl)(4-(4-methylpyrazolo[1,5-a]pyridin-2-yl)-6,7-dihydro-1H-imidazo[4,5-c]pyridin-5(4H)-yl)methanone] | 1 to 5 |
| O=C(c1nnc(-c2ncccc2F)o1)N1CCc2[nH]cnc2[C@@H]1c1cc2cccc(F)n2n1 [Example 1458, (R)-(4-(7-fluoropyrazolo[1,5-a]pyridin-2-yl)-6,7-dihydro-1H-imidazo[4,5-c]pyridin-5(4H)-yl)(5-(3-fluoropyridin-2-yl)-1,3,4-oxadiazol-2-yl)methanone] | 1 to 5 |
